Source: patent publication US20170304286A1 (LAUNX BIOMEDICAL CO., LTD., priority 2014, published 2017)
Read-outs that look alike come from different tables or passages of the source.

Key:
Assay type in all cases: cell-based
[1] = system: H1650 (lung adenocarcinoma); assay: WST-1 cell viability, lung cancer cell line H1650; settings: Homo sapiens
Protocol: (§1) The cell numbers were counted and reseed as 2×10^6 in culture plate/flask. Then, the culture medium were added to a volume of 10 ml, and the cells were cultured for 2-3 days. Then, the cells were suspended for loading into 96-well plates. The number of cells was 3000 and the volume of the culture medium was 100 μl each well.
(§2) Removing the original culture medium from 96-well plate. Then add 100 μl of commercially drug at a concentration of 10 μM per well. After 72 hours, add the diluted WST-1 reagent to the well with 100 μl/well, and the diluted WST-1 reagent was acquired from the dilution of 9:1 medium and WST-1 stock reagent. Finally, the total volume of each well was 200 μl/well. Culture the 96-well plate at 37° C. for 30 to 90 minutes. Detecting and calculate the survival rate of each cancer cells with an ELISA reader at OD450 nm.

colorectal cancer cells = assay: Summary of cell viability, colorectal cancer; settings: 72 h, read-out: Inhibitory effect
Protocol: as §2

[2] = WST-1 cell viability, normal kidney cell line HEK293; settings: human, HEK293 normal kidney cells
Protocol: as §1, §2

[3] = system: 786-O (Renal adenocarcinoma); assay: WST-1 cell viability, renal cancer cell line 786-O; settings: Homo sapiens
Protocol: as §1, §2

NIH-OVCAR-3 = assay: WST-1 cell viability, ovarian cancer cell line NIH-OVCAR-3; settings: Homo sapiens
Protocol: as §1, §2

breast cancer cells = assay: Summary of cell viability, breast cancer; settings: 72 h, read-out: Inhibitory effect
Protocol: as §2

HCT116-wt = assay: WST-1 cell viability, colorectal cancer cell line HCT116-wt; settings: 72 h
Protocol: as §1, §2

[4] = system: MKN-45 (Gastric Adenocarcinoma); assay: WST-1 cell viability, gastric cancer cell line MKN-45; settings: Homo sapiens
Protocol: as §1, §2

normal cells = assay: Toxicity to normal cells (cell viability)
Description: Subculture the different types of cancer cells. The cancer cells includes lung cancer, gastric cancer, hepatic cancer, colon cancer, skin cancer, cervical cancer, prostate cancer, bladder cancer, breast cancer, leukemia, pancreatic cancer, ovarian cancer, tongue cancer, osteosarcoma, and renal cancer. The normal cells used in the control group included kidney cells (HEK293), canine fibroblast cell line HFW, and human bronchial epithelial cell line BEAS-2B.
as §2

various cancer cells = assay: Inhibitory effect on various cancer cells (cell viability); settings: Table 18, FIG. 1
Description: Subculture the different types of cancer cells. The cancer cells includes lung cancer, gastric cancer, hepatic cancer, colon cancer, skin cancer, cervical cancer, prostate cancer, bladder cancer, breast cancer, leukemia, pancreatic cancer, ovarian cancer, tongue cancer, osteosarcoma, and renal cancer. The normal cells used in the control group included kidney cells (HEK293), canine fibroblast cell line HFW, and human bronchial epithelial cell line BEAS-2B. Removing the original culture medium from 96-well plate. […] After 72 hours, add the diluted WST-1 reagent to the well with 100 μl/well, and the diluted WST-1 reagent was acquired from the dilution of 9:1 medium and WST-1 stock reagent. […] Culture the 96-well plate at 37° C. for 30 to 90 minutes. Detecting and calculate the survival rate of each cancer cells with an ELISA reader at OD450 nm. […] (FIG. 1)

TSGH = assay: WST-1 cell viability, bladder cancer cell line TSGH; settings: 72 h
Protocol: as §1, §2

pancreatic cancer cells = assay: Summary of cell viability, pancreatic cancer; settings: 72 h, read-out: Inhibitory effect
Protocol: as §2

[5] = system: LoVo(Colorectal Adenocarcinoma); assay: WST-1 cell viability, colorectal cancer cell line LoVo; settings: Homo sapiens, 72 h
Protocol: as §1, §2

BxPC-3 = assay: WST-1 cell viability, pancreatic cancer cell line BxPC-3; settings: Homo sapiens
Protocol: as §1, §2

cervical cancer cells = assay: Summary of cell viability, cervical cancer; settings: 72 h, read-out: Inhibitory effect
Protocol: as §2

[6] = system: AGS (Gastric Adenocarcinoma); assay: WST-1 cell viability, gastric cancer cell line AGS; settings: 72 h
Protocol: as §1, §2

[7] = system: HepG2 (hepatocellular carcinoma); assay: WST-1 cell viability, hepatic cancer cell line HepG2; settings: Homo sapiens
Protocol: as §1, §2

[8] = average of 4 tests, read-out: survival rate (inhibition effect), Average
[9] = run 0510-10 min, read-out: survival rate (inhibition effect)
[10] = run 0512-10 min, read-out: survival rate (inhibition effect)
[11] = run 0515-10 min, read-out: survival rate (inhibition effect)
[12] = run 0517-10 min, read-out: survival rate (inhibition effect)

SMILES: Fc1ccc([C@@H]2CCNC[C@H]2COc2ccc3c(c2)OCO3)cc1 [Paroxetine]
- viability at 10 µM ([1]; NCI-H1650, 72 h, H1650, average of 4 tests, read-out: survival rate (inhibition effect), Average): 56.9%
- viability at 10 µM ([1]; NCI-H1650, H1650, 72 h, run 1-10 min, read-out: survival rate (inhibition effect)): 66.4%
- viability at 10 µM ([1]; NCI-H1650, H1650, 72 h, run 2-20 min, read-out: survival rate (inhibition effect)): 31.6%
- viability at 10 µM ([1]; NCI-H1650, H1650, 72 h, run 3-20 min, read-out: survival rate (inhibition effect)): 58.2%
- viability at 10 µM ([1]; NCI-H1650, H1650, 72 h, run 4-20 min, read-out: survival rate (inhibition effect)): 71.3%
- viability at 10 µM (colorectal cancer cells): 43.2%
- viability at 72 h, 10 µM ([2]; HEK293, average of 4 tests, read-out: survival rate (inhibition effect), Average): 71.4%
- viability at 72 h, 10 µM ([2]; HEK293, run 0602-30 min, read-out: survival rate (inhibition effect)): 64.9%
- viability at 72 h, 10 µM ([2]; HEK293, run 0605-30 min, read-out: survival rate (inhibition effect)): 76.8%
- viability at 72 h, 10 µM ([2]; HEK293, run 0607-30 min, read-out: survival rate (inhibition effect)): 76%
- viability at 72 h, 10 µM ([2]; HEK293, run 0609-30 min, read-out: survival rate (inhibition effect)): 67.8%
- viability at 72 h, 10 µM ([2]; summary, kidney cell, read-out: Inhibitory effect): 71.4%
- viability at 10 µM ([3]; 786-0, 786-O, 72 h, run 0524-10 min, read-out: survival rate (inhibition effect)): 35.2%
- viability at 10 µM ([3]; 786-0, 786-O, 72 h, run 0526-10 min, read-out: survival rate (inhibition effect)): 24%
- viability at 10 µM ([3]; 786-0, 786-O, 72 h, run 0529-10 min, read-out: survival rate (inhibition effect)): 14.6%
- viability at 10 µM ([3]; 786-0, 786-O, 72 h, run 0531-10 min, read-out: survival rate (inhibition effect)): 22.3%
- viability at 10 µM ([3]; 786-0, 72 h, 786-O, average of 4 tests, read-out: survival rate (inhibition effect), Average): 24%
- viability at 10 µM ([3]; 786-0, 72 h, summary, renal cancer, read-out: Inhibitory effect): 72.5%
- viability at 10 µM (NIH-OVCAR-3; OVCAR-3, 72 h, NIH-OVCAR-3, average of 4 tests, read-out: survival rate (inhibition effect), Average): 86%
- viability at 10 µM (NIH-OVCAR-3; OVCAR-3, NIH-OVCAR-3, 72 h, run 7-3-30 min, read-out: survival rate (inhibition effect)): 80.2%
- viability at 10 µM (NIH-OVCAR-3; OVCAR-3, NIH-OVCAR-3, 72 h, run 7-4-30 min (fourth column), read-out: survival rate (inhibition effect)): 97.8%
- viability at 10 µM (NIH-OVCAR-3; OVCAR-3, NIH-OVCAR-3, 72 h, run 7-4-30 min (second column), read-out: survival rate (inhibition effect)): 81.9%
- viability at 10 µM (NIH-OVCAR-3; OVCAR-3, NIH-OVCAR-3, 72 h, run 7-7-30 min, read-out: survival rate (inhibition effect)): 83.9%
- viability at 10 µM (breast cancer cells): 46.5%
- viability at 10 µM (HCT116-wt; [8]): 28.4%
- viability at 10 µM (HCT116-wt; run 0602-30 min, read-out: survival rate (inhibition effect)): 23.8%
- viability at 10 µM (HCT116-wt; run 0605-10 min, read-out: survival rate (inhibition effect)): 30.6%
- viability at 10 µM (HCT116-wt; run 0607-10 min, read-out: survival rate (inhibition effect)): 29.7%
- viability at 10 µM (HCT116-wt; run 0609-10 min, read-out: survival rate (inhibition effect)): 29.5%
- viability at 10 µM ([4]; MKN-45, 72 h, MKN-45, average of 4 tests, read-out: survival rate (inhibition effect), Average): 40.5%
- viability at 10 µM ([4]; MKN-45, MKN-45, 72 h, run 0510-10 min, read-out: survival rate (inhibition effect)): 36.2%
- viability at 10 µM ([4]; MKN-45, MKN-45, 72 h, run 0512-10 min, read-out: survival rate (inhibition effect)): 52%
- viability at 10 µM ([4]; MKN-45, MKN-45, 72 h, run 0515-10 min, read-out: survival rate (inhibition effect)): 37.8%
- viability at 10 µM ([4]; MKN-45, MKN-45, 72 h, run 0517-10 min, read-out: survival rate (inhibition effect)): 36%
- toxicity to normal cells (normal cells): no toxicity or had little toxicity
- inhibitory effect on several cancer cell lines (various cancer cells): significant inhibitory effect
- viability at 10 µM (TSGH; [8]): 38.4%
- viability at 10 µM (TSGH; [9]): 37.1%
- viability at 10 µM (TSGH; [10]): 37.4%
- viability at 10 µM (TSGH; [11]): 36.8%
- viability at 10 µM (TSGH; [12]): 42.2%
- viability at 10 µM (pancreatic cancer cells): 77.4%
- viability at 10 µM [5, 8]: 58%
- viability at 10 µM ([5]; run 0616-10 min, read-out: survival rate (inhibition effect)): 54.1%
- viability at 10 µM ([5]; run 0619-10 min, read-out: survival rate (inhibition effect)): 51.5%
- viability at 10 µM ([5]; run 0621-10 min, read-out: survival rate (inhibition effect)): 77.3%
- viability at 10 µM ([5]; run 0623-10 min, read-out: survival rate (inhibition effect)): 48.9%
- viability at 10 µM (BxPC-3; BXPC-3, 72 h, BxPC-3, average of 4 tests, read-out: survival rate (inhibition effect), Average): 77.7%
- viability at 10 µM (BxPC-3; BXPC-3, BxPC-3, 72 h, run 3-4-30 min, read-out: survival rate (inhibition effect)): 87%
- viability at 10 µM (BxPC-3; BXPC-3, BxPC-3, 72 h, run 3-7-3-30 min, read-out: survival rate (inhibition effect)): 59.7%
- viability at 10 µM (BxPC-3; BXPC-3, BxPC-3, 72 h, run 3-7-4-30 min, read-out: survival rate (inhibition effect)): 93.7%
- viability at 10 µM (cervical cancer cells): 63.8%
- viability at 10 µM [6, 8]: 12.2%
- viability at 10 µM [6, 9]: 12%
- viability at 10 µM [6, 10]: 11.1%
- viability at 10 µM [6, 11]: 12.7%
- viability at 10 µM [6, 12]: 12.8%
- viability at 10 µM ([7]; HepG2, 72 h, HepG2, average of 4 tests, read-out: survival rate (inhibition effect), Average): 54.1%
- viability at 10 µM ([7]; HepG2, HepG2, 72 h, run 0524-20 min, read-out: survival rate (inhibition effect)): 66.4%
- viability at 10 µM ([7]; HepG2, HepG2, 72 h, run 0526-20 min, read-out: survival rate (inhibition effect)): 58.3%
- viability at 10 µM ([7]; HepG2, HepG2, 72 h, run 0529-20 min, read-out: survival rate (inhibition effect)): 50.1%
- viability at 10 µM ([7]; HepG2, HepG2, 72 h, run 0531-20 min, read-out: survival rate (inhibition effect)): 41.7%
